From PMC8305652, “Copper(II) Complexes Containing Natural Flavonoid Pomiferin Show Considerable In Vitro Cytotoxicity and Anti-inflammatory Effects” (International Journal of Molecular Sciences, 2021)

Key:
THP-1 cells = assay: intracellular production of reactive oxygen species, DCFH2-DA; type: cell-based, human; conditions: THP-1, 200 nM; for increase of total ROS levels: 1.5 h experiment; for ROS production, long term: 23.5 h, pyocyanin 100 μM as radical-forming control
Protocol: THP-1 cells were used for the determination of the potential of tested compounds to initiate the intracellular ROS production, as was described previously with some minor modifications. Cells in serum-free RPMI 1640 medium without phenol red were seeded into black 96-well plates (5 × 10^4 cells/100 µL/well). After 2 h of incubation, the cells were treated with copper(II) complexes 1–5 at a concentration of 200 nM, and pyocyanin at a final concentration of 100 μM was added into control group to trigger production of reactive oxygen species (ROS), respectively. After the incubation at 37 °C for either 1.5 h or 23.5 h, dichlorofluorescin diacetate (DCFH2-DA) (5 μg/mL) was added and cells were kept under the same conditions hereafter. Thirty minutes later, fluorometric measurement of the fluorescent product DCF was conducted using a Tecan Infinite F200 microplate reader (Tecan, Männedorf, Switzerland) with λ(ex./em.) = 485/520 nm.

[1] = system: breast adenocarcinoma (MCF-7); assay: in vitro cytotoxicity, MTT assay; type: cell-based, human; conditions: at least three independent experiments
Protocol: (§1) The testing was performed on the following human cancer cell lines: breast adenocarcinoma (MCF-7), osteosarcoma (HOS), lung adenocarcinoma (A549), prostate adenocarcinoma (PC-3), ovarian carcinoma (A2780), cisplatin-resistant ovarian carcinoma (A2780R) and colorectal adenocarcinoma (Caco-2) obtained from ATCC collection of cell lines and cultivated according to producer’s instructions.

[2] = system: cisplatin-resistant ovarian carcinoma (A2780R); assay: in vitro cytotoxicity, MTT assay; type: cell-based, human; conditions: mean ± SD, at least three independent experiments
Protocol: as §1

[3] = system: prostate adenocarcinoma (PC-3); assay: in vitro cytotoxicity, MTT assay; type: cell-based, human; conditions: mean ± SD, at least three independent experiments
Protocol: as §1

[4] = system: lung adenocarcinoma (A549); assay: in vitro cytotoxicity, MTT assay; type: cell-based, human; conditions: at least three independent experiments
Protocol: as §1

[5] = system: ovarian carcinoma (A2780); assay: in vitro cytotoxicity, MTT assay; type: cell-based, human; conditions: at least three independent experiments
Protocol: as §1

A2780 cells [6] = assay: cell cycle analysis by flow cytometry; type: cell-based, human; conditions: A2780, 15 µM, 24 h
Protocol: Human ovarian cancer cell line A2780 (Sigma, Darmstadt, Germany) were used for this study. Cells were cultivated at 37 °C under a 5% CO2 atmosphere in an RPMI 1640 medium (Sigma Aldrich, Darmstadt, Germany) supplemented with (the final concentrations in medium): L-glutamine (2 mM), fetal bovine serum (FBS, 10%) and PenStrep (5 U penicillin, 50 µg streptomycin/mL).
After 24 h, the cells were washed once with PBS (0.1 M, pH 7.4) and cell cycle analysis was performed according to the protocol of BD Cycletest^TM Plus DNA kit (Becton Dickinson, Franklin Lakes, NJ, USA). Measurements were performed using BD FACSVerse flow cytometer (Becton Dickinson, Franklin Lakes, NJ, USA) in 3 independent experiments, each done in duplicate, while at least 5 × 10^3 events were recorded for each sample.

[7] = system: THP-1 human monocytic leukemia cell line; assay: relative cell viability, WST-1; type: cell-based; conditions: 24 h, six independent experiments
Protocol: The THP-1 human monocytic leukemia cell line was purchased from the European Collection of Cell Cultures (ECACC, Salisbury, UK). Cells were cultured in an RPMI 1640 medium containing stabilized 2 mM L-glutamine (Biosera, Nuaille, France) supplemented with the mixture of antibiotics [100 U/mL penicillin and […] (Biosera, Nuaille, France)], and 10% foetal bovine serum (FBS) (HyClone, Marlborough, MA, USA). The cells were kept in an incubator at 37 °C in an atmosphere of air containing 5% CO2 and 100% humidity.
The relative cell viability of floating monocytes THP-1 were determined after 24 h incubation in a serum-free medium with compounds 1–5 dissolved in N,N-dimethylformamide (DMF) at increasing concentrations (20–0.125 µM) by the cell proliferation reagent WST-1 (Roche, Basel, Switzerland) according to the manufacturer’s manual, as we described previously. The IC50 values were calculated from resultant viability curves by four-parameter logistic (4PL) analysis.

osteosarcoma (HOS) = assay: in vitro cytotoxicity, MTT assay; type: cell-based, human; conditions: mean ± SD, at least three independent experiments
A2780 cells [8] = assay: Annexin V/propidium iodide cell death assay, flow cytometry; type: cell-based, human; conditions: 24 h; for Annexin V +/PI + cells (late apoptotic/secondary necrotic) / Annexin V +/PI − cells (early apoptotic): A2780, 15 µM, mean of three experiments
Protocol: Both methods were performed according to the manufacturers’ protocols with 1 modification in the caspase induction assay, which was the use of the CellEvent^TM Caspase-3/7 Green Detection Reagent only for detection of Caspase-3/7 activation. […] After 24 h, the cells were washed once with PBS (0.1 M, pH 7.4), detached with trypsin (0.25% in ethylenediaminetetraacetic acid (EDTA), Sigma-Aldrich), resuspended in 500 µL of the culture medium and divided into 2 separate tubes, the first for apoptosis assay and the second one for caspase activation analysis. After staining with appropriate dyes, samples were analyzed on a BD FACSVerse flow cytometer (Becton Dickinson, Franklin Lakes, NJ, USA) in 3 separate experiments, while at least 10^4 events were recorded for each sample prepared in duplicate.

[9] = system: NF-κB/AP-1 in THP-1-XBlue-MD2-CD14 cells; assay: LPS-stimulated NF-κB/AP-1 activity, SEAP reporter; type: cell-based, human; conditions: read 24 h after LPS; for inhibition of LPS-stimulated NF-κB/AP-1 activation: complexes applied at 200 nM and 50 nM, 1 h pre-treatment
Protocol: The activity of transcription factors NF-κB/AP-1 was evaluated using the THP-1-XBlue^TM-MD2-CD14 cell line [obtained from Invivogen (San Diego, CA, USA)], expressing an NF-κB/AP-1-inducible secreted embryonic alkaline phosphatase (SEAP) reporter gene, as was described previously. The complexes 1–5 were applied to the cells at the concentrations of 200 nM and 50 nM, pomiferin (at 200 nM), and a reference drug prednisone at 1 μM, respectively. Lipopolysaccharide (LPS) from E. coli 0111:B4 (Sigma-Aldrich) dissolved in PBS was used to trigger an inflammation-like reaction. The activity of the SEAP was determined by Quanti-Blue^TM reagent (Invivogen, San Diego, CA, USA) according to the manufacturer’s instructions 24 h after lipopolysaccharide stimulation. The activity of NF-κB/AP-1 was determined spectrophotometrically using the FLUOstar Omega microplate reader (BMG Labtech, Ortenberg, Germany) at 655 nm and compared with that of the vehicle.

[10] = system: primary culture of human hepatocytes (Hep); assay: toxicity against primary culture of human hepatocytes; type: cell-based; conditions: tested range 0.1–100 μM
pUC19 plasmid DNA = assay: nuclease-like activity, plasmid DNA cleavage; type: biochemical; conditions: for plasmid DNA nicked to OC-form: 10 µM; for cleavage of plasmid DNA: 300 µM; for DNA cleavage in the presence of ROS scavengers (KI, NaN3, DMSO): 0.66 mM H2O2, scavengers equimolar to complex; for effectivity of plasmid DNA cleavage with H2O2: order 2 ≈ 4 > 1
[11] = water-containing medium (10% DMF), 37 °C, 1 h

Molecule | increase of total ROS levels (THP-1 cells) [%] | ROS production, long term (THP-1 cells) | IC50 ([1]; mean ± SD) [µM] | IC50 [2] [µM] | IC50 [3] [µM] | IC50 ([4]; mean ± SD) [µM] | IC50 ([5]; mean ± SD) [µM] | IC50 ([7]; serum-free medium) [µM] | IC50 (osteosarcoma (HOS)) [µM] | Annexin V +/PI + cells (late apoptotic/secondary necrotic) (A2780 cells [8]) [%] | Annexin V +/PI − cells (early apoptotic) (A2780 cells [8]) [%] | inhibition of LPS-stimulated NF-κB/AP-1 activation [9] | IC50 [10] [µM] | plasmid DNA nicked to OC-form (pUC19 plasmid DNA; [11]) | cleavage of plasmid DNA (pUC19 plasmid DNA; [11]) | DNA cleavage in the presence of ROS scavengers (KI, NaN3, DMSO) (pUC19 plasmid DNA) | effectivity of plasmid DNA cleavage with H2O2 (pUC19 plasmid DNA; 0.66 mM H2O2) | effect on LPS-stimulated NF-κB/AP-1 activity at 50 nM [9] | other results
CC(C)=CCc1c2c(c3occ(-c4ccc(O)c(O)c4)c(=O)c3c1[O-])C=CC(C)(C)O2.Cc1ccnc(-c2cc(C)ccn2)c1.O.O.O=[N+]([O-])[O-].[Cu+2] [Complex 2, (3-(3,4-dihydroxyphenyl)-8,8-dimethyl-6-(3-methylbut-2-en-1-yl)-4H,8H-benzo[1,2-b:3,4-b′]dipyran-4-one-5-olato-κ^2O4:O5)(4,4′-dimethyl-2,2′-bipyridine–κ^2N:N)copper(II) nitrate dihydrate] | 55 | pro-oxidant effect almost diminished | 29.6 ± 2 | 5.3 ± 1.1 | > 50 | 20.9 ± 0.9 | 5.4 ± 2.4 | 7.9 ± 1.1 | 21.1 ± 1.6 | 19.8 ± 0.7 | 9.2 ± 0.8 | able to inhibit | > 100 | ca. 30% | cleave the DNA completely to small fragments | not affected by the addition of the ROS scavengers | comparable with the effectivity of copper sulphate pentahydrate |  | cells in G2/M phase (A2780 cells [6]; control 20.1 ± 0.4%): 21.9 ± 0.8%
CC(C)=CCc1c2c(c3occ(-c4ccc(O)c(O)c4)c(=O)c3c1[O-])C=CC(C)(C)O2.CO.O=[N+]([O-])[O-].[Cu+2].c1ccc(-c2ccnc3c2ccc2c(-c4ccccc4)ccnc23)cc1 [Complex 4, (3-(3,4-dihydroxyphenyl)-8,8-dimethyl-6-(3-methylbut-2-en-1-yl)-4H,8H-benzo[1,2-b:3,4-b′]dipyran-4-one-5-olato-κ^2O4:O5)(4,7-diphenyl-1,10-phenanthroline–κ^2N:N)copper(II) nitrate methanol solvate] | 87 | pro-oxidant effect almost diminished | 16 ± 1.1 | 6.6 ± 2.3 | 13 ± 1.1 | 8.7 ± 0.8 | 12.8 ± 3.1 | 3.3 ± 1.2 |  | 93.3 ± 2.9 |  | able to inhibit | > 100 | ca. 30% | cleave the DNA completely to small fragments | not affected by the addition of the ROS scavengers | comparable with the effectivity of copper sulphate pentahydrate |  | cells in G0/G1 phase (A2780 cells [6]; control 58.4 ± 0.5%): 62.1 ± 1.2%
CC(C)=CCc1c2c(c3occ(-c4ccc(O)c(O)c4)c(=O)c3c1O)C=CC(C)(C)O2 [pomiferin, 3-(3,4-dihydroxyphenyl)-5-hydroxy-8,8-dimethyl-6-(3-methylbut-2-ene-1-yl)-4H,8H-benzo[1,2-b:3,4-b′]dipyran-4-one] |  | did not increase the amount of ROS |  |  |  |  |  |  |  | 49.0 ± 1.9 | 10.0 ± 0.1 |  |  |  |  |  |  | slightly increased | ROS production, short term (THP-1 cells; 1.5 h): did not increase the amount of ROS; IC50 ([1]; Homo sapiens, MCF7, mean ± SD): 22 ± 0.1 µM; IC50 ([2]; Homo sapiens): 4.3 ± 1.3 µM; IC50 ([3]; Homo sapiens): 18.5 ± 0.7 µM; IC50 ([4]; Homo sapiens, A549, mean ± SD): 21.2 ± 1.4 µM; IC50 ([5]; Homo sapiens, A2780, mean ± SD): 8.4 ± 2 µM; cells in the S phase of the cell cycle (A2780 cells [6]; untreated control 21.4 ± 0.8%): 26 ± 0.9%; IC50 ([7]; Homo sapiens, THP-1, serum-free medium): > 10 µM; IC50 (osteosarcoma (HOS); Homo sapiens): 20.7 ± 0.5 µM; viability at 15 µM (A2780 cells [8]; Homo sapiens, A2780, 15 μM, Figure 3, one out of three independent experiments, read-out: Annexin - / PI - (viable cells)): 37.1%; IC50 ([10]; Hepatocyte): > 50 µM; lowering of the portion of OC-form formed after addition of hydrogen peroxide (pUC19 plasmid DNA; 0.66 mM H2O2): ca. 20%; effect on supercoiled CCC-form of plasmid DNA (pUC19 plasmid DNA; [11]): did not affect
(3-(3,4-dihydroxyphenyl)-8,8-dimethyl-6-(3-methylbut-2-en-1-yl)-4H,8H-benzo[1,2-b:3,4-b′]dipyran-4-one-5-olato-κ^2O4:O5)(dipyrido[3,2-a:2′,3′-c]phenazine–κ^2N4:N5)copper(II) nitrate methanol solvate [Complex 5] |  | elevated the ROS levels similarly as pyocyanin | 3 ± 0.5 | 2.2 ± 0.5 | 3.3 ± 0.1 | 3.1 ± 0.2 | 2.5 ± 0.9 | 3.1 ± 1.1 | 2.4 ± 0.9 |  |  | able to inhibit | > 100 |  |  |  |  | active | 
